Where “and” joins values, the source holds several entries; their conditions need not be identical. Equal values may be shown once. Calls of active or inactive are those of the source. No rule for the calls is given here.
Test: concentration series on yeast TOR reporter LAP4 – cell-based, MLPCN hits, flow cytometry, dose response (AID 2745);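 also: yeast exposed to compound for three hours at 30 degrees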
Details: S. cerevisiae LAP4-GFP reporter, flow cytometry fluorescence; at 33 µM (top of the series)

Compound	LAP4-GFP fluorescence (kMESF)
COc1ccc(NC2=C(Cl)C(=O)N(CCc3ccccc3)C2=O)c(OC)c1	3.18 kMESF (inactive)
Cc1cc(=O)oc2cc(Oc3ccc([N+](=O)[O-])cc3C(F)(F)F)ccc12	3.64 kMESF (inactive)
COc1ccc(/C=C/C(=O)c2cc(Br)ccc(=O)c2O)cc1	-33.8 kMESF (inactive)
CCCCC(=O)NC(=S)NNC(=O)CCc1ccccc1	8.13 kMESF (inactive)
O/C=c1\ccc2cccc3nc(C(F)(F)F)nc1c23	15.8 kMESF (inactive)
CCN(CC(=O)Nc1cc(S(=O)(=O)N2CCOCC2)ccc1Cl)Cc1ccccc1	3.97 kMESF (inactive)
N#Cc1cc([N+](=O)[O-])c(-n2nnc3ccccc32)c([N+](=O)[O-])c1	14.5 kMESF (inactive)
COC(=O)c1cc(N2C(=O)C3C(C2=O)C2(C)C=CC3(C)O2)ccc1Cl (stereo unspecified)	8.52 kMESF (inactive)
O=C1N(c2ccccc2C(F)(F)F)O[C@]1(c1ccccc1)C1CCCC1	3.98 kMESF (inactive)
Cc1c(N2C(=O)/C(=C\c3ccccc3O)SC2=S)c(=O)n(-c2ccccc2)n1C	10.8 kMESF (inactive)
COc1cc(/C=C2\C(=O)ON=C2c2ccccc2)cc(OC)c1OC	6.41 kMESF (inactive)
Oc1c(CN2CCN(c3ccc(F)cc3)CC2)cc(Cl)c2cccnc12	13.1 kMESF (inactive)
O=C(OCC(=O)N1CCN(C(=O)c2ccco2)CC1)c1cc(-c2ccc(Cl)c(Cl)c2Cl)nc2ccccc12	4.61 kMESF (inactive)
O=[N+]([O-])c1ccc(Sc2nc3ccccc3o2)c([N+](=O)[O-])c1	4.88 kMESF (inactive)
O=c1cc(-c2ccccc2)cc(-c2ccccc2)n1O	5.91 kMESF (inactive)
CC(C)[C@@]1(c2ccccc2)ON(c2ccccc2C(F)(F)F)C1=O	3.43 kMESF (inactive)
COc1ccc(/C=C2/C(=O)ON=C2c2ccccc2)cc1OC	14 kMESF (inactive)
COCCN1C(=O)/C(=C/c2ccc(N3CCCC3)cc2C)SC1=S	7.02 kMESF (inactive)
COc1ccc(Cl)cc1C(Nc1cccnc1)c1ccc2cccnc2c1O (stereo unspecified)	19.3 kMESF (inactive)
O=C(/C=C/c1ccccc1)NC(=S)NNC(=O)Cc1cccs1	3.64 kMESF (inactive)
Cc1ccc2c(nc3s/c(=C\c4ccc(-c5ccccc5C(=O)O)o4)c(=O)n32)c1C	15.5 kMESF (inactive)

Compound	LAP4-GFP fluorescence (kMESF)
O=C(O)c1cc[c]([Hg][Cl])cc1	8.49 kMESF (inactive)
CN(c1ccccc1)c1ccc(/C=c2\s/c(=C(/C#N)C(=O)C(C)(C)C)n(Cc3ccco3)c2=O)cc1	10.4 kMESF (inactive)
CCOC(=O)c1c(C)oc2c1c(C(c1ccncc1)N1CCOCC1)c(O)c1ccccc12 (stereo unspecified)	6.29 kMESF (inactive)
C#CCOc1c(Br)cc(/C=C2/C(=O)ON=C2C)cc1OC	12.2 kMESF (inactive)
CC(=O)Oc1oc(-c2ccccc2)nc1C=Nc1ccc(N(C)C)cc1	7.39 kMESF (inactive)
Oc1c(C(Nc2nc3ccccc3s2)c2ccco2)ccc2cccnc12 (stereo unspecified)	24.1 kMESF (inactive)
COc1ccc([C@]2(C(C)C)ON(c3ccccc3C(F)(F)F)C2=O)cc1	4.65 kMESF (inactive)
CC(=O)[C@]1(O)Cc2c(O)c3c(c(O)c2[C@@H](O[C@H]2C[C@H](N)[C@H](O)[C@H](C)O2)C1)C(=O)c1ccccc1C3=O	9.67 kMESF (inactive)
O=C(O)c1ccn2c(C(=O)c3ccccc3)c(-c3ccccc3)cc2c1	7.25 kMESF (inactive)
COc1ccc(C=C2C(=O)c3ccccc3C2=O)cc1O	3.24 kMESF (inactive)
O=c1c2cnn(-c3ccccc3)c2ncn1Cc1ccco1	2.63 kMESF (inactive)
O=C(c1ccccn1)c1conc1C(=O)c1ccc(Br)cc1	9.07 kMESF (inactive)
Cc1[nH]c2ccccc2c1C(=O)COC(=O)c1ccc([N+](=O)[O-])s1	6.02 kMESF (inactive)
CN(C)c1ccc(N=Cc2nc(-c3ccccc3)oc2OC(=O)c2cccc(Cl)c2)cc1	3.99 kMESF (inactive)
O=C1NC(=O)N(CCc2ccc(F)cc2)C(=O)/C1=C/c1cccs1	9.69 kMESF (inactive)
O=C(NNC(=S)NC(=O)C12CC3CC(CC(C3)C1)C2)c1ccncc1	15.7 kMESF (inactive)
C[C@@H]1C[C@@H]([C@H](O)CC2CC(=O)NC(=O)C2)C(=O)[C@@H](C)C1	6.31 kMESF (inactive)
COc1ccccc1C(=O)NNC(=S)NC(=O)c1ccco1	13.2 kMESF (inactive)
C=CCn1c(C)c(/C=C/c2cc[n+](C)cc2)c2ccccc21	10.8 kMESF (inactive)
Cc1nn2c(-c3ccncc3)nnc2c2ccccc12	3.34 kMESF (inactive)
COc1cccc2c(=O)c(C(=O)NCc3cccs3)c[nH]c12	2.13 kMESF (inactive)

Compound	LAP4-GFP fluorescence (kMESF)
CC(Oc1ccc2ccccc2c1)C(=O)NNC(=S)NC(=O)c1ccco1 (stereo unspecified)	13.9 kMESF (inactive)
O=C(c1ccc(Cl)c([N+](=O)[O-])c1)N1CCN(c2ccccc2)CC1	8.26 kMESF (inactive)
O=C1c2cccc3c([N+](=O)[O-])ccc(c23)C(=O)N1O	3.64 kMESF (inactive)
COc1ccccc1NC1=C(Cl)C(=O)N(c2ccccc2)C1=O	2.98 kMESF (inactive)
O=C1c2cccc3c([N+](=O)[O-])ccc(c23)C(=O)N1c1ccccn1	7.78 kMESF (inactive)
Cc1ccc(/C=C2\C(=O)NC(=S)N(c3ccccc3F)C2=O)s1	5.57 kMESF (inactive)
Cc1c(Br)c(=O)oc2c(Br)c(O)c(O)cc12	2.43 kMESF (inactive)
COc1cc(C=C2C(=O)c3ccccc3C2=O)cc(OC)c1OC	4.04 kMESF (inactive)
O=C(Nc1nc2ccc(F)cc2s1)c1ccccn1	8.11 kMESF (inactive)
CCOc1ccc(N/N=C(/C#N)C(N)=O)cc1	9.57 kMESF (inactive)
Cc1cccc(/C=C/C(=O)c2ccc([N+](=O)[O-])o2)c1	9.32 kMESF (inactive)
CCOc1ccc(N2C(=O)C(Cl)=C(Nc3ccccc3O)C2=O)cc1	5.81 kMESF (inactive)
O=C(OCC(=O)N1CCN(C(=O)c2ccco2)CC1)c1cc(-c2ccccc2)nc2ccccc12	10.4 kMESF (inactive) and 6.1 kMESF (inactive)
COc1ccc(CCNC2=C(Cl)C(=O)N(CCc3ccccc3)C2=O)cc1OC	3.31 kMESF (inactive)
CC(=O)Oc1cccc(N2C(=O)c3cccc4c([N+](=O)[O-])ccc(c34)C2=O)c1	5.16 kMESF (inactive)
O=C(COc1c(Br)cc(Br)c2cccnc12)N1CCc2ccccc2C1	12.3 kMESF (inactive)
O=C(O)C1Sc2[nH]c(=O)sc2C2c3cc(Br)ccc3OC(=O)C12 (stereo unspecified)	5.82 kMESF (inactive)
O=C1N(c2ccccc2C(F)(F)F)OC1(Cc1ccccc1)c1ccccc1 (stereo unspecified)	4.48 kMESF (inactive)
CCCCc1ccc(/C=C2/C(=O)ON=C2c2ccccc2)s1	3.67 kMESF (inactive)
